Laboratory results published in patent publication US4457936A, “Use of hydroxyphenyl-thiazole-, -thiazoline- and -thiazolidine-carboxylic acids, for influencing the collagen metabolism” (Hoechst Aktiengesellschaft, priority 1980, dated 1984).
Like-named read-outs stand apart in the source and are kept apart here.

Assays:
prolyl hydroxylase = prolyl hydroxylase (Homo sapiens, UniProt P13674); assay: enzyme test, hydroxylation of insufficiently hydroxylated collagen by prolyl hydroxylase (cell-free); type: biochemical
Text: (§1) The inhibiting effect of the substances in accordance with the invention on collagen biosynthesis can be examined in an enzyme test analogous to the method of B. Peterkofsky and R. DiBlasio [Anal. Biochem. 66, 279-286 (1975)]. In this test, insufficiently hydroxylated collagen is enzymatically hydroxylated in the presence of molecular oxygen, iron-II ions, alpha-ketoglutaric and ascorbic acid.
(§2) As enzymes, prolyl hydroxylase or lysyl hydroxylase can be used and applied in a cell-free medium. The effect of the substances of the invention can be measured furthermore in cell and tissue cultures.
(§3) The inhibiting effect (DI50) is that concentration at which the enzyme reaction is inhibited by 50%.

lysyl hydroxylase = molecular target: T1, lysyl hydroxylase (Homo sapiens, UniProt Q02809); assay: enzyme test, hydroxylation of insufficiently hydroxylated collagen by lysyl hydroxylase (cell-free); type: biochemical
T1 sequence (Q02809 19-727): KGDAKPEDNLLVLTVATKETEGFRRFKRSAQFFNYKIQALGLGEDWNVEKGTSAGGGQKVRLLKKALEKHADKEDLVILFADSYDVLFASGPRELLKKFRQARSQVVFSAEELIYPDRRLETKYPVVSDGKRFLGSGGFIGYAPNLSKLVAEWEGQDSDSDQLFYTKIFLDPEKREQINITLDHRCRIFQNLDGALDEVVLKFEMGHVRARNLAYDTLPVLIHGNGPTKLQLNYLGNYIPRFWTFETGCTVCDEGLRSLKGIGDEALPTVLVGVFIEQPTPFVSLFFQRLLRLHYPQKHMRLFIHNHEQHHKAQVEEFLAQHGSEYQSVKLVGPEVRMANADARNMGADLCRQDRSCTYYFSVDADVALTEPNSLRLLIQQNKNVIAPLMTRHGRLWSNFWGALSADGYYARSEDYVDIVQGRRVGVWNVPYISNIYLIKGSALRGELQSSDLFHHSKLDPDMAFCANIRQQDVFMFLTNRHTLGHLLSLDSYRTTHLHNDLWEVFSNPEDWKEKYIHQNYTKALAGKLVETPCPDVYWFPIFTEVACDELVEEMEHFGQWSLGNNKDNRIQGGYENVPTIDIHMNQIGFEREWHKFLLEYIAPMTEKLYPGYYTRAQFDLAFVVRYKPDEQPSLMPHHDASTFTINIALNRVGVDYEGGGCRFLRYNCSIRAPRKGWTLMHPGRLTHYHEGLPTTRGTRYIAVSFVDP
Text: as §1, §2, §3

collagen biosynthesis = assay: inhibiting effect in cell culture; type: cell-based; conditions: read-out: DI50 cell culture
Text: as §2, §3

[1] = concentration at which the enzyme reaction is inhibited by 50%, first part of Table, read-out: DI50 propyl-hydroxylase
[2] = concentration at which the enzyme reaction is inhibited by 50%, first part of Table, read-out: DI50 lysylhydroxylase
[3] = second part of Table, P, read-out: DI50 P.circle.
[4] = second part of Table, column L (circled), read-out: DI50 L.circle.

prolyl hydroxylase, sequence (P13674 18-534): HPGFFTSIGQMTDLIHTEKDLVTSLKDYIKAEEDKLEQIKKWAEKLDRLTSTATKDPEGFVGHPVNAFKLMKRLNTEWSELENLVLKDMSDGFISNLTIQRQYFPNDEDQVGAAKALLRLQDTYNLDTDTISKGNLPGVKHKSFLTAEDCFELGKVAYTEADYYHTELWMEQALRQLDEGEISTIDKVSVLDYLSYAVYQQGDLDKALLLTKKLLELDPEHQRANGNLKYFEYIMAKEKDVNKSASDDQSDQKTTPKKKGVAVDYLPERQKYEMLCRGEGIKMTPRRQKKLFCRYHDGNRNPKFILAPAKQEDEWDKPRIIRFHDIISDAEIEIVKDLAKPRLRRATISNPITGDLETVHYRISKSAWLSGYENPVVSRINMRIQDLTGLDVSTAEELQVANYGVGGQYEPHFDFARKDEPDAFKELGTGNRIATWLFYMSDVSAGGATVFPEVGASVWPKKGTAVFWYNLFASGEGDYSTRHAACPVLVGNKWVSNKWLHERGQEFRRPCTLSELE
prolyl hydroxylase, sequence (P07237 18-508 partner): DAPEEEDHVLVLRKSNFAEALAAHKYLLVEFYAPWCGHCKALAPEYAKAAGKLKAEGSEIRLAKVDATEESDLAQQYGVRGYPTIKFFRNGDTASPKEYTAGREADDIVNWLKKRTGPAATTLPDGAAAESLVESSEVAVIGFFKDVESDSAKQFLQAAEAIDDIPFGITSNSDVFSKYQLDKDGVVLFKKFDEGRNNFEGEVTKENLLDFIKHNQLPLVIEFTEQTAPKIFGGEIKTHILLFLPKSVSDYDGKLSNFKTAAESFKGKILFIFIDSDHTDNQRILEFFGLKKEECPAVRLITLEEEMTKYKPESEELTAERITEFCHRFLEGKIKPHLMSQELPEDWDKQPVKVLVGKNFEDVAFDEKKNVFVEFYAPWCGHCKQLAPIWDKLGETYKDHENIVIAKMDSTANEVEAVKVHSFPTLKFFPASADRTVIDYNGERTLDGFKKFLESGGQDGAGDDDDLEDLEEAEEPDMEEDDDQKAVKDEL

Row | Compound | IC50 (prolyl hydroxylase; [1]) | IC50 (lysyl hydroxylase; [2]) | IC50 (collagen biosynthesis) | IC50 (prolyl hydroxylase; [3]) | IC50 (lysyl hydroxylase; [4])
1 | O=C(O)C1CSC(c2ccccc2O)=N1 (centres unmarked) | 20 µM | 28 µM | – | – | –
2 | Cc1ccc(O)c(-c2nc(C(=O)O)cs2)c1 | 42 µM | 67 µM | – | – | –
3 | Cc1ccc(O)c(-c2nc(C(=O)O)c(-c3ccccc3)s2)c1 | – | – | – | 26 µM | 34 µM
4 | O=C(O)c1nc(-c2ccc(O)cc2O)sc1-c1ccccc1 | – | – | – | 27 µM | 21 µM
5 | Cc1ccc(O)c(-c2nc(C(=O)O)c(C(=O)O)s2)c1 | – | – | – | 67 µM | 144 µM
6 | O=C(O)c1csc(-c2cc(Cl)ccc2O)n1 | – | – | – | 71 µM | 188 µM
7 | Nc1ccc(O)c(-c2nc(C(=O)O)cs2)c1 | – | – | – | 5.6 µM | 29 µM
8 | O=C(O)c1csc(-c2cc(Cl)c3ccccc3c2O)n1 | – | – | – | 28.2 µM | 31.6 µM

Further lines, results first:

Row | IC50 (prolyl hydroxylase; [1]) | IC50 (lysyl hydroxylase; [2]) | IC50 (collagen biosynthesis) | IC50 (prolyl hydroxylase; [3]) | IC50 (lysyl hydroxylase; [4]) | Compound
9 | 28 µM | 28 µM | 34 µM | – | – | Cc1ccc(O)c(C2=NC(C(=O)O)CS2)c1 (centres unmarked)
10 | 16 µM | 12 µM | 17 µM | – | – | O=C(O)C1CSC(c2cc(Cl)ccc2O)=N1 (centres unmarked)
11 | 26 µM | 16 µM | – | – | – | O=C(O)C1CSC(c2ccc(O)cc2O)=N1 (centres unmarked)
12 | 28 µM | 28 µM | – | – | – | O=C(O)[C@@H]1CSC(c2ccccc2O)N1 (some centres unmarked)
13 | 50 to 100 µM | 50 to 100 µM | – | – | – | O=C(O)[C@@H]1CSC(c2cc([N+](=O)[O-])ccc2O)N1 (some centres unmarked)
14 | 50 to 100 µM | 10 µM | – | – | – | O=C(O)[C@@H]1CSC(c2cc(Br)cc(Br)c2O)N1 (some centres unmarked)
15 | 50 to 100 µM | 50 to 100 µM | – | – | – | O=C(O)[C@@H]1CSC(c2cc(Cl)cc(Cl)c2O)N1 (some centres unmarked)
